Measured values published in patent publication US10463670B2, “Use of non-peptide NK1 antagonists in a predetermined dose for the treatment of cancer” (SERVICIO ANDALUZ DE SALUD, priority 2013, dated 2019).
Where a SMILES comes first, the peptide text is derived from it. Bridges are numbered along the chain shown (N, C = ends). [ ]: non-standard residue; d: D form. The star is where a group is joined. NH(β-GlcNAc) = CC(=O)N[C@@H]1[C@@H](O)[C@H](O)[C@@H](CO)O[C@H]1N*; Dap = NC[C@H](N)C(=O)O

Legend:
[1] = system: human lung cancer; reference HCC-44; experiment: Lung cancer HCC-44 tumours in nude mice, Cisplatin alone or with Aprepitant; type: in vivo; conditions: Cisplatin 8 mg/kg on days 1 and 7, alone
Protocol: Immunocompromised female mice, 5-6 weeks of age were used, nu/nu Balb/c nude mice, provided by Harlan Iberica Barcelona (Spain). They were kept at 24° C. and in sterile conditions with food and water “ad libitum”. […] The tumour size was measured and the mice were evaluated for their state of health and weight daily. […] One of the groups was treated with 200 μl of placebo (control group) and the eight remaining groups with doses of 10 (group 1), 20 (group 2), 30 (group 3), 40 (group 4), 50 (group 5), 60 (group 6), 70 (group 7) and 80 (group 8) mg per kilogram of weight and day of the NK1 receptor antagonist Aprepitant. 3 animals were treated per group, during 28 days. All the mice were sacrificed at the end of the experiment. […] Immunocompromised female mice, 5-6 weeks of age were used, in the same conditions as explained in example 1. […] The tumour size was measured and the mice were evaluated for their state of health and weight daily. […] One of the groups was treated with Cisplatin at 8 mg per kilogram of weight at single doses on days 1 and 7 of the experiment (control group) and the eight remaining groups with the same treatment as the control group and the doses of 1 (group 1), 3 (group 2), 5 (group 3), 6 (group 4), 7 (group 5), 8 (group 6), 9 (group 7) and 10 (group 8) mg per kilogram of weight and day, of the NK1 receptor antagonist Aprepitant. […]

[2] = system: human glioma; reference GAMG; experiment: Glioma GAMG tumours in nude mice, Cisplatin alone or with Aprepitant; type: in vivo; conditions: Cisplatin 8 mg/kg on days 1 and 7, alone
Protocol: (§1) Immunocompromised female mice, 5-6 weeks of age were used, nu/nu Balb/c nude mice, provided by Harlan Iberica Barcelona (Spain). They were kept at 24° C. and in sterile conditions with food and water “ad libitum”. […] The tumour size was measured and the mice were evaluated for their state of health and weight daily. […] One of the groups was treated with 200 μl of placebo (control group) and the eight remaining groups with doses of 10 (group 1), 20 (group 2), 30 (group 3), 40 (group 4), 50 (group 5), 60 (group 6), 70 (group 7) and 80 (group 8) mg per kilogram of weight and day of the NK1 receptor antagonist Aprepitant. 3 animals were treated per group, during 28 days. All the mice were sacrificed at the end of the experiment. […] Immunocompromised female mice, 5-6 weeks of age were used, in the same conditions as explained in example 1. […] The tumour size was measured and the mice were evaluated for their state of health and weight daily. […] One of the groups was treated with two single doses of Cisplatin, of 8 mg per kilogram of weight, on days 1 and 7 of the experiment (control group). The eight remaining groups were treated with the same treatment as the control group and the doses of 1 (group 1), 3 (group 2), 5 (group 3), 6 (group 4), 7 (group 5), 8 (group 6), 9 (group 7) and 10 (group 8) mg per kilogram of weight and day, of the NK1 receptor antagonist Aprepitant. […]

[3] = system: human fibrosarcoma; reference HT-1080; experiment: Fibrosarcoma HT-1080 tumours in nude mice, Cisplatin alone or with Aprepitant; type: in vivo; conditions: Cisplatin 8 mg/kg on days 1 and 7, alone
Protocol: as §1

[4] = system: human melanoma; reference MEL-HO; experiment: Melanoma MEL-HO tumours in nude mice, Cisplatin alone or with Aprepitant; type: in vivo; conditions: Cisplatin 8 mg/kg on days 1 and 7, alone
Protocol: as §1

[5] = system: human neuroblastoma; reference KELLY; experiment: Neuroblastoma KELLY tumours in nude mice, Cisplatin alone or with Aprepitant; type: in vivo; conditions: Cisplatin 8 mg/kg on days 1 and 7, alone
Protocol: as §1

[6] = system: human lymphoma; reference BC-1; experiment: Lymphoma BC-1 tumours in nude mice, Cisplatin alone or with Aprepitant; type: in vivo; conditions: Cisplatin 8 mg/kg on days 1 and 7, alone
Protocol: as §1

cell proliferation = conditions: Singh et al. 2000; Bigioni et al. 2005; cited from earlier work

Compound: N.N.[Cl][Pt][Cl] [Cisplatin]
- Tumour size (mean volume of the tumour) ([1]; 7 days): 105 ± 4 cubic millimeters
- Tumour size (mean volume of the tumour) ([1]; 14 days): 70 ± 7 cubic millimeters
- Tumour size (mean volume of the tumour) ([2]; 7 days): 115 ± 7 cubic millimeters
- Tumour size (mean volume of the tumour) ([2]; 14 days): 85 ± 6 cubic millimeters
- Tumour size (mean volume of the tumour) ([3]; 7 days): 95 ± 5 cubic millimeters
- Tumour size (mean volume of the tumour) ([3]; 14 days): 65 ± 5 cubic millimeters
- Tumour size (mean volume of the tumour) ([4]; 7 days): 105 ± 6 cubic millimeters
- Tumour size (mean volume of the tumour) ([4]; 14 days): 75 ± 6 cubic millimeters
- Tumour size (mean volume of the tumour) ([5]; 7 days): 95 ± 8 cubic millimeters
- Tumour size (mean volume of the tumour) ([5]; 14 days): 60 ± 8 cubic millimeters
- Tumour size (mean volume of the tumour) ([6]; 7 days): 85 ± 6 cubic millimeters
- Tumour size (mean volume of the tumour) ([6]; 14 days): 50 ± 3 cubic millimeters

Compound: CC(=O)N[C@@H]1[C@@H](O)[C@H](O)[C@@H](CO)O[C@H]1NC(=O)C[C@@H]1NC(=O)[C@H](CC(C)C)NC(=O)[C@@H]2CNC(=O)C[C@H](NC1=O)C(=O)N[C@@H](Cc1c[nH]c3ccccc13)C(=O)N[C@@H](Cc1ccccc1)C(=O)N2 [MEN 11420, Nepadutant] (cyclo(D(NH(β-GlcNAc))DWF[Dap]L); lactam 2-5)
- Blocking cell proliferation (cell proliferation): efficacy thereof in blocking cell proliferation

Compound: Cc1ccc(CC(=O)N(C)[C@H](Cc2ccc3ccccc3c2)C(=O)N[C@@H]2CCCC[C@@H]2NC(=O)c2c[nH]c3ccccc23)cc1 [MEN 11467]
- Blocking cell proliferation (cell proliferation): efficacy thereof in blocking cell proliferation

Compound: CC(=O)NC1(c2ccccc2)CCN(CC[C@H](CN(C)C(=O)c2ccccc2)c2ccc(Cl)c(Cl)c2)CC1 [SR 48968]
- Blocking cell proliferation (cell proliferation): efficacy thereof in blocking cell proliferation
